Assays:
[1] = molecular target: T1, Recombinant ROCK1 (amino acids 1-477) (Homo sapiens, UniProt Q13464); experiment: ROCK inhibition assay, LANCE Ultra TR-FRET kinase assay (ROCK1); format: biochemical; conditions: 1 μM ATP, 50 nM ULight-CREBtide substrate
T1 construct: Recombinant ROCK1 (amino acids 1-477); by word order, ROCK1 from Carna Biosciences
Procedure, shortened: (§1)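 LANCE Ultra TR-FRET kinase assay with recombinant ROCK1 (aa 1-477) or ROCK2 (aa 5-554), 50 nM ULight-CREBtide and ATP at 1 μM (ROCK1) or 4 μM (ROCK2) in HEPES pH 7.5 with MgCl2, 1 h at room temperature. EDTA stop with Eu anti-phospho-CREB Ser133 antibody; 665/615 nm read gives IC50.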

[2] = molecular target: T2, Recombinant ROCK2 (amino acids 5-554) (Homo sapiens, UniProt O75116); experiment: ROCK inhibition assay, LANCE Ultra TR-FRET kinase assay (ROCK2); format: biochemical; conditions: 4 μM ATP, 50 nM ULight-CREBtide substrate
T2 construct: ROCK2 (amino acids 5-554); by word order, ROCK2 from SignalChem
T2 sequence (O75116 5-554): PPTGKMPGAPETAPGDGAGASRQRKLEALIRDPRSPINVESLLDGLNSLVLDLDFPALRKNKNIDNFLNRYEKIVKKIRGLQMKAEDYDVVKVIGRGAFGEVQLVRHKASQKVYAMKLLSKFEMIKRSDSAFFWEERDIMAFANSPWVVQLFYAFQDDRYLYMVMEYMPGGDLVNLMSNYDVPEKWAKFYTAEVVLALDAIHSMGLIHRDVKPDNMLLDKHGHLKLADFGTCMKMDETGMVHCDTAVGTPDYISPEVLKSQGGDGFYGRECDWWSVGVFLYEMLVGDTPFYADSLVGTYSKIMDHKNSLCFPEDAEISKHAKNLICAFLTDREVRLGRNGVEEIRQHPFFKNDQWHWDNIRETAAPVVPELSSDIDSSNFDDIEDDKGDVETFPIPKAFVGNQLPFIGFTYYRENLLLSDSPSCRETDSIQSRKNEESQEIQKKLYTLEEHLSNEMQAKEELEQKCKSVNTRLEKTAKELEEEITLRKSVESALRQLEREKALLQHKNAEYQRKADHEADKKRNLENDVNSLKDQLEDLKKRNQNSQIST
Procedure, shortened: as §1

T1 sequence (Q13464 1-477): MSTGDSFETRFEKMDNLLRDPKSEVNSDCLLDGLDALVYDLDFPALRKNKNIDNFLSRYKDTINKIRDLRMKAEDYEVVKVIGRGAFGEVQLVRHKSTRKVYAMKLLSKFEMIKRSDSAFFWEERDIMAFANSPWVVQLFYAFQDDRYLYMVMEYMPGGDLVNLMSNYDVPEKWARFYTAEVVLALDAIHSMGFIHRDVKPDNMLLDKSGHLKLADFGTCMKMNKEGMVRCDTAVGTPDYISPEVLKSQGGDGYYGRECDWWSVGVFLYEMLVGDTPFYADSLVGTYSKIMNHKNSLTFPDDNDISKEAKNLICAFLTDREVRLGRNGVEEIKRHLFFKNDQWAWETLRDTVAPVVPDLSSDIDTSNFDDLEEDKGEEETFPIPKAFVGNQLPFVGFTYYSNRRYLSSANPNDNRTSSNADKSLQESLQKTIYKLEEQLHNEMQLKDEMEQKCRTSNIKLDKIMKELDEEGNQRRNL

SMILES | IC50 [1] [nM] | IC50 [2] [nM]
Cc1nocc1-c1ccc2c(=O)n(Cc3cccc(C(=O)NC(C)C)c3)cnc2c1 [Compound 414] | 101 to 500 | 10 to 100
Cn1nccc1-c1ccc2c(=O)n(Cc3cccc(C(=O)NCCO)c3)cnc2c1 [Compound 432] | 101 to 500 | 10 to 100
CNC(=O)c1cccc(Cn2cnc3cc(-c4ccnc(N)c4)ccc3c2=O)c1 [Compound 433] | 101 to 500 | 10 to 100
Nc1cc(-c2ccc3c(=O)n(Cc4cccc(C(=O)NC5COC5)c4)cnc3c2)ccn1 [Compound 434] | 101 to 500 | 10 to 100
Nc1cc(-c2ccc3c(=O)n(Cc4cccc(C(=O)NC5CCOCC5)c4)cnc3c2)ccn1 [Compound 435] | 101 to 500 | 10 to 100
CNC(=O)c1cccc(Cn2cnc3cc(-c4cnnn4C)ccc3c2=O)c1 [Compound 439] | > 501 | > 500
C[C@H](c1cccc(C(=O)N(C)C)c1)n1cnc2cc(-c3cn[nH]c3C(F)(F)F)ccc2c1=O [Compound 442] | > 501 | > 500
[2H]C([2H])([2H])NC(=O)c1cccc([C@@H](C)n2cnc3cc(-c4cn[nH]c4C(F)(F)F)ccc3c2=O)c1 [Compound 443] | 11 to 100 | < 10
CNC(=O)c1cccc([C@H](C)n2cnc3cc(-c4cn[nH]c4C(F)(F)F)ccc3c2=O)c1 [Compound 444] | 11 to 100 | < 10
CC(C)NC(=O)c1cccc([C@@H](C)n2cnc3cc(-c4cn[nH]c4C(F)(F)F)ccc3c2=O)c1 [Compound 445] | 11 to 100 | < 10
C[C@H](c1cccc(C(=O)N(C)Cc2ccncc2)c1)n1cnc2cc(-c3cn[nH]c3C(F)(F)F)ccc2c1=O [Compound 446] | > 501 | > 500
C[C@H](c1cccc(C(=O)NC2CCOCC2)c1)n1cnc2cc(-c3cn[nH]c3C(F)(F)F)ccc2c1=O [Compound 449] | 11 to 100 | < 10
C[C@H](c1cccc(C(=O)NCC2CCOCC2)c1)n1cnc2cc(-c3cn[nH]c3C(F)(F)F)ccc2c1=O [Compound 451] | 11 to 100 | < 10
C[C@H](c1cccc(C(=O)NCC2COC2)c1)n1cnc2cc(-c3cn[nH]c3C(F)(F)F)ccc2c1=O [Compound 452] | 11 to 100 | < 10
C[C@H](c1cccc(C(=O)NCCO)c1)n1cnc2cc(-c3cn[nH]c3C(F)(F)F)ccc2c1=O [Compound 453] | 11 to 100 | 10 to 100
CNC(=O)c1cc(F)cc([C@@H](C)n2cnc3cc(-c4cn[nH]c4C(F)(F)F)ccc3c2=O)c1 [Compound 454] | 11 to 100 | < 10
[2H]C([2H])([2H])NC(=O)c1cc(F)cc([C@@H](C)n2cnc3cc(-c4cn[nH]c4C(F)(F)F)ccc3c2=O)c1 [Compound 455] | 11 to 100 | < 10
CNC(=O)c1cc([C@@H](C)n2cnc3cc(-c4cn[nH]c4C(F)(F)F)ccc3c2=O)ccc1F [Compound 456] | 101 to 500 | 10 to 100
CNC(=O)c1cccc([C@@H](C)n2cnc3cc(-c4cn[nH]c4C(F)F)ccc3c2=O)c1 [Compound 457] | 11 to 100 | < 10

The next lines start with the values.

IC50 [1] [nM] | IC50 [2] [nM] | SMILES
< 10 | < 10 | CN1CCC(NC(=O)c2cccc(Cn3cnc4cc(-c5cn[nH]c5Cl)ccc4c3=O)c2)CC1 [Compound 408]
< 10 | < 10 | O=C(NC1CCNCC1)c1cccc(Cn2cnc3cc(-c4cn[nH]c4Cl)ccc3c2=O)c1 [Compound 409]
< 10 | < 10 | CN1CCC(CNC(=O)c2cccc(Cn3cnc4cc(-c5cn[nH]c5Cl)ccc4c3=O)c2)CC1 [Compound 410]
11 to 100 | < 10 | CNC(=O)c1cccc(Cn2cnc3cc(-c4conc4C)ccc3c2=O)c1 [Compound 411]
11 to 100 | < 10 | [2H]C([2H])([2H])NC(=O)c1cccc(Cn2cnc3cc(-c4conc4C)ccc3c2=O)c1 [Compound 412]
11 to 100 | < 10 | Cc1nocc1-c1ccc2c(=O)n(Cc3cccc(C(=O)NCC4COC4)c3)cnc2c1 [Compound 415]
11 to 100 | < 10 | Cc1nocc1-c1ccc2c(=O)n(Cc3cccc(C(=O)NCC4CCOCC4)c3)cnc2c1 [Compound 416]
< 10 | < 10 | Cc1nocc1-c1ccc2c(=O)n(Cc3cccc(C(=O)NCC4CCN(C)CC4)c3)cnc2c1 [Compound 417]
< 10 | < 10 | Cc1nocc1-c1ccc2c(=O)n(Cc3cccc(C(=O)NCC4CCNCC4)c3)cnc2c1 [Compound 418]
< 10 | < 10 | Cc1nocc1-c1ccc2c(=O)n(Cc3cccc(C(=O)NCCc4cccnc4)c3)cnc2c1 [Compound 419]
11 to 100 | < 10 | Cc1nocc1-c1ccc2c(=O)n(Cc3cccc(C(=O)NCCN4CCOCC4)c3)cnc2c1 [Compound 420]
11 to 100 | < 10 | Cc1nocc1-c1ccc2c(=O)n(Cc3cccc(C(=O)NCC(F)(F)F)c3)cnc2c1 [Compound 421]
11 to 100 | < 10 | CNC(=O)c1cc(F)cc(Cn2cnc3cc(-c4conc4C)ccc3c2=O)c1 [Compound 422]
11 to 100 | < 10 | [2H]C([2H])([2H])NC(=O)c1cc(F)cc(Cn2cnc3cc(-c4conc4C)ccc3c2=O)c1 [Compound 423]
11 to 100 | < 10 | [2H]C([2H])([2H])NC(=O)c1cccc(Cn2cnc3cc(-c4ccnn4C)ccc3c2=O)c1 [Compound 425]
11 to 100 | < 10 | CNC(=O)c1cccc(C(C)n2cnc3cc(-c4ccnn4C)ccc3c2=O)c1 (stereo not drawn) [Compound 426]
11 to 100 | < 10 | Cn1nccc1-c1ccc2c(=O)n(Cc3cccc(C(=O)N[C@H]4C[C@@H](O)C4)c3)cnc2c1 [Compound 427]
11 to 100 | < 10 | Cn1nccc1-c1ccc2c(=O)n(Cc3cccc(C(=O)N[C@H]4C[C@H](O)C4)c3)cnc2c1 [Compound 428]
11 to 100 | < 10 | Cn1nccc1-c1ccc2c(=O)n(Cc3cccc(C(=O)N[C@H]4CC[C@@H](O)CC4)c3)cnc2c1 [Compound 429]
11 to 100 | < 10 | CN1CCC(NC(=O)c2cccc(Cn3cnc4cc(-c5ccnn5C)ccc4c3=O)c2)CC1 [Compound 430]
11 to 100 | 10 to 100 | Cn1nccc1-c1ccc2c(=O)n(Cc3cccc(C(=O)NCC4COC4)c3)cnc2c1 [Compound 431]
11 to 100 | < 10 | CN1CCC(NC(=O)c2cccc(Cn3cnc4cc(-c5ccnc(N)c5)ccc4c3=O)c2)CC1 [Compound 436]
11 to 100 | 10 to 100 | Nc1cc(-c2ccc3c(=O)n(Cc4cccc(C(=O)NCC5CCOCC5)c4)cnc3c2)ccn1 [Compound 438]
11 to 100 | < 10 | CNC(=O)c1cccc([C@@H](C)n2cnc3cc(-c4cn[nH]c4C)ccc3c2=O)c1 [Compound 441]
< 10 | < 10 | C[C@H](c1cccc(C(=O)NCc2ccncc2)c1)n1cnc2cc(-c3cn[nH]c3C(F)(F)F)ccc2c1=O [Compound 447]
< 10 | < 10 | C[C@H](c1cccc(C(=O)NC2CCN(C)CC2)c1)n1cnc2cc(-c3cn[nH]c3C(F)(F)F)ccc2c1=O [Compound 450]

— patent publication US12064426B2, “Selective inhibitors of ROCK1 and ROCK2 protein kinases and uses thereof” (GENOSCO Inc., priority 2021, dated 2024)
